Measured values as given in patent US11883395B2 (priority 2020, dated 2024).

Tested on: human coronavirus (hCOV)-OC43
Format: cell-based

O=C(C1CC1)N1CCN(Cn2sc3ccccc3c2=O)CC1 [LOC13, 2-[[4-(cyclopropylcarbonyl)-1-piperazinyl]methyl]-1,2-benzisothiazol-3(2H)-one]
significantly decreased: hCoV-OC43 envelope protein mRNA level | hCoV-OC43 membrane protein mRNA level | hCoV-OC43 spike protein mRNA level

O=C1O[C@H]2[C@@H]3OC(=O)c4cc(O)c(O)c(O)c4-c4c(O)c(O)c5oc(=O)c6c(c(O)c(O)c7oc(=O)c4c5c76)-c4c(cc(O)c(O)c4O)C(=O)OC[C@H]3OC(O)[C@@H]2OC(=O)c2cc(O)c(O)c(O)c2-c2c1cc(O)c(O)c2O (mixture of isomers) [punicalagin]
significantly decreased: hCoV-OC43 envelope protein mRNA level | hCoV-OC43 membrane protein mRNA level | hCoV-OC43 spike protein mRNA level
